# Source: patent US4556676A, “Antidepressant derivatives of trans-4-phenyl-1,2,3,4-tetrahydro-1-naphthalenamine” (priority 1980, dated 1985)
# Structures can show the parent of a compound that is named as a salt. Where two headings read alike, the source gives them in different places.
# How the values were obtained:
# uptake of serotonin = conditions: known drugs; cited from earlier work
# [1] = tested on: synaptosomal uptake of dopamine (DA); assay: Blockade of synaptosomal uptake of dopamine (DA) in vitro, rat corpus striatum; assay type: biochemical, Sprague-Dawley CD male rats; conditions: rat corpus striatum synaptosomes
# Experimental: (§1) Sprague-Dawley CD male rats weighing 180-220 g. (Charles River Laboratories, Inc.; Wilmington, Mass.) were used in this procedure. A crude synaptosomal fraction of rat corpus striatum (for 5HT and DA uptake) or hypothalmus (for NE uptake) tissue was prepared by homogenizing tissue (25 ml./g. wet) in ice-cold 0.32M sucrose containing 1 mg./ml. glucose, 0.0001M EDTA and tris(hydroxymethyl)aminomethane to pH 7.4. The homogenate was centrifuged at 1000×g for 10 min. at 0°-4° C., the pellet discarded and the supernatant centrifuged at 17,000×g for 20 min. at 0°-4° C. The resulting pellet was resuspended in the ice-cold 0.32M sucrose pH 7.4 solution at 10 ml./g. original tissue (wet) for corpus striatum and 5 ml./g. original tissue (wet) for hypothalmus. […] Duplicate 0.1 ml. aliquots of the tissue suspension were incubated for 10 min. at 37° C. with 0.02 ml. of a solution containing a known quantity of the named test compound and 1.0 ml. of the incubation buffer containing additionally 1 mg./ml. glucose and 0.0001 mM labeled monoamine (^14 C-5HT, ^14 C-DA or ^3 H-NE). After incubation, the mixtures were filtered through 0.45 micron Millipore filters and the filters washed with the incubation buffer. […] Uptake was calculated as picomoles 5HT, DA or NE per mg. protein (protein was determined by measurement with Folin phenol reagent).
# [2] = tested on: 5-hydroxytryptophan-induced tremors; assay: Potentiation of 5-hydroxytryptophan-induced behavioral symptoms (tremors) in vivo; parameters: species or system Swiss-Webster CD male mice; conditions: for ED50: Mus musculus; for ED50 (tremors): then 100 mg./kg. i.p. 5HTP one hour later, Hydrochloride
# Experimental: The mice were rated for the presence of this symptom by a "blinded observer" at 10-20 min. after 5HTP treatment.
# [3] = tested on: synaptosomal uptake of norepinephrine (NE); assay: Blockade of synaptosomal uptake of norepinephrine (NE) in vitro, rat hypothalmus; assay type: biochemical, Sprague-Dawley CD male rats; conditions: rat hypothalmus synaptosomes
# Experimental: as §1
# mice = assay: Reduction of behavioral despair in vivo (modified Porsolt mouse swim test); parameters: species or system Swiss-Webster CD male mice; conditions: sc, read-out: MPE50
# Experimental: A number of Swiss-Webster CD male mice weighing 25-30 g. (Charles River Laboratories, Inc.; Wilmington, Mass.) were housed under standard laboratory conditions for at least one week prior to experimentation. […] One hour later the mice were placed individually in 1 liter beakers containing 7 cm. of 25° C. water. Beginning at 2 min. after immersion, each mouse was observed every 30 sec. for the presence of immobility, characterized as floating motionless in the water. A total of ten observations were made, each being scored as "0=animal moving, swimming, attempting to escape" or "1=animal immobile". The number of positive observations for each mouse was then totaled and a mean immobility score calculated for the group of ten.
# [4] = tested on: synaptosomal uptake of serotonin (5HT); assay: Blockade of synaptosomal uptake of serotonin (5HT) in vitro, rat corpus striatum; assay type: biochemical, Sprague-Dawley CD male rats; conditions: rat corpus striatum synaptosomes, 5HT uptake
# Experimental: as §1
# [5] = po, 1 h, read-out: ED50 (tremors), mice, oral, then 100 mg./kg. i.p. 5HTP one hour later
# [6] = mice, oral, no observed tremors at 32 mg./kg., highest dose tested, read-out: ED50 (tremors), footnoted
# [7] = mice, subcutaneous, 1 hour before test
SMILES,IC50 [1],IC50 [3],also measured
COCCCC/C(=N\OCCN)c1ccc(C(F)(F)F)cc1 [fluvoxamine],–,–,selective block of uptake of serotonin (compared to norepinephrine blockade) (uptake of serotonin): selectively block the uptake of serotonin
CN(C)[C@@H]1CC[C@@H](c2ccc(Cl)c(Cl)c2)c2ccccc21 (relative stereo) [Example 20a],170 nM,–,–
"CN[C@@H]1CC[C@@H](c2cccc(C(F)(F)F)c2)c2ccccc21 (relative stereo) [Example 9, Trans-(1S)(1R)-N-methyl-4-(3-trifluoromethylphenyl)-1,2,3,4-tetrahydro-1-naphthalenamine Maleate]",2600 nM,260 nM,"ED50 [2, 5]: 10 to 32 mg/kg; ED50 (mice; 1 h): > 32 mg/kg"
"N[C@@H](Cc1c[nH]c2ccc(O)cc12)C(=O)O [Example 5HTP, 5-hydroxytryptophan, reference compound]",–,–,"behavioral effects of 5HTP by itself ([2]; mice, 100 mg./kg. i.p. 5HTP alone): no clear behavioral effects"
"CN[C@@H]1CC[C@@H](c2ccc(Cl)cc2)c2ccccc21.Cl (relative stereo) [Example 5, Trans-N-methyl-4-(4-chlorophenyl)-1,2,3,4-tetrahydro-1-naphthalenamine Hydrochloride]",–,–,"ED50 [2, 6]: > 32 mg/kg"
"CN(C)[C@@H]1CC[C@@H](c2ccccc2)c2ccccc21 (relative stereo) [II, Trans-(1S)(1R)-N,N-- dimethyl-4-phenyl-1,2,3,4-tetrahydro-1-naphthalenamine hydrochloride, reference compound]",840 nM,140 nM,–
"CN[C@@H]1CC[C@@H](c2ccccc2)c2ccccc21 (relative stereo) [I, Trans-(1S)(1R)-N-- methyl-4-phenyl-1,2,3,4-tetrahydro-1-naphthalenamine hydrochloride, reference compound]",210 nM,37 nM,IC50 [4]: 1500 nM
"CN[C@@H]1CC[C@@H](c2ccc(Cl)cc2)c2ccccc21.Cl (relative stereo) [Example 6, Trans-N-methyl-4-(4-chlorophenyl)-1,2,3,4-tetrahydro-1-naphthalenamine Hydrochloride]",–,–,"ED50 (tremors) ([2]; mice, oral): 3.2-10 mg./kg. - oral; ED50 (mice; [7]): 0.88 mg/kg"
"CN[C@@H]1CC[C@@H](c2ccc(Br)cc2)c2ccccc21 (relative stereo) [Example 12, Trans-(1S)(1R)-N-methyl-4-(4-bromophenyl)-1,2,3,4-tetrahydro-1-naphthalenamine Hydrochloride]",80 nM,29 nM,IC50 [4]: 90 nM
"CN[C@@H]1CC[C@@H](c2ccc(Cl)cc2)c2ccccc21.Cl (relative stereo) [Example 4, Trans-N-methyl-4-(4-chlorophenyl)-1,2,3,4-tetrahydro-1-naphthalenamine Hydrochloride]",–,–,"IC50 ([1]; Hydrochloride): 110 nM; ED50 (tremors) ([2]; mice, oral): 10-32 mg./kg. - oral"
CN[C@@H]1CC[C@@H](c2cccc(OC)c2)c2ccccc21 (relative stereo) [Example 15],530 nM,60 nM,IC50 [4]: 340 nM
"CN[C@@H]1CC[C@@H](c2ccc(Cl)c(Cl)c2)c2ccccc21 (relative stereo) [Example 1, Trans-(1S)(1R)-N-methyl-4-(3,4-diclorophenyl)-1,2,3,4-tetrahydro-1-naphthalenamine Hydrochloride]",–,–,"ED50 ([2]; po, 1 h, read-out: ED50 (oral dosage level at which tremors elicited), mice, oral, then 100 mg./kg. i.p. 5HTP one hour later, tremors): 3.2 to 10 mg/kg; ED50 (mice; 1 h): 1.5 mg/kg"
CN[C@@H]1CC[C@@H](c2ccc(C(F)(F)F)cc2)c2ccccc21 (relative stereo) [Example 8],4400 nM,690 nM,"ED50 [2, 5]: 10 to 32 mg/kg; ED50 (mice; [7]): > 10 mg/kg"
"CN[C@@H]1CC[C@@H](c2ccc(F)cc2)c2ccccc21 (relative stereo) [Example 7, Trans-(1S)(1R)-N-methyl-4-(4-fluorophenyl)-1,2,3,4-tetrahydro-1-naphthalenamine Hydrochloride]",220 nM,27 nM,"ED50 ([2]; po, read-out: ED50 (tremors), footnoted, mice, oral, no observed tremors at 32 mg./kg., highest dose tested): > 32 mg/kg; ED50 (mice; 1 h): 2.3 mg/kg"
"CN(C)[C@@H]1CC[C@@H](c2cccc(C(F)(F)F)c2)c2ccccc21 (relative stereo) [Example 18, Trans-(1S)(1R)-N,N-dimethyl-4-(3-trifluoromethylphenyl)-1,2,3,4-tetrahydro-1-naphthalenamine Maleate]",6100 nM,1400 nM,IC50 [4]: 220 nM
CN(C)[C@@H]1CC[C@@H](c2ccc(C(F)(F)F)cc2)c2ccccc21 (relative stereo) [Example 19],9800 nM,4700 nM,"ED50 [2, 5]: 3.2 to 10 mg/kg"
CN(C)C/C=C(/c1ccc(Br)cc1)c1cccnc1 [zimelidine],–,–,selective block of uptake of serotonin (compared to norepinephrine blockade) (uptake of serotonin): selectively block the uptake of serotonin
"CN[C@@H]1CC[C@@H](c2ccc(Cl)cc2Cl)c2ccccc21 (relative stereo) [Example 16, Trans-(1S)(1R)-N-methyl-4-(2,4-dichlorophenyl)-1,2,3,4-tetrahydro-1-naphthalenamine Hydrochloride]",6100 nM,–,–
"CN[C@@H]1CC[C@@H](c2ccc(Cl)cc2)c2ccc(Cl)cc21 (relative stereo) [Example 11, Trans-(1S)(1R)-N-methyl-4-(4-chlorophenyl)-7-chloro-1,2,3,4-tetrahydro-1-naphthalenamine Hydrochloride]",45 nM,28 nM,IC50 [4]: 160 nM; ED50 (mice; [7]): 6.4 mg/kg
CN[C@@H]1CC[C@@H](c2ccccc2OC)c2ccccc21 (relative stereo) [Example 14],5700 nM,480 nM,"ED50 [2, 6]: > 32 mg/kg; IC50 [4]: 4500 nM; ED50 (mice; [7]): > 32 mg/kg"
"CN[C@@H]1CC[C@@H](c2ccc(Cl)cc2)c2ccc(OC)cc21 (relative stereo) [Example 17, Trans-(1S)(1R)-N-methyl-4-(4-chlorophenyl)-7-methoxy-1,2,3,4-tetrahydro-1-naphthalenamine Hydrochloride]",42 nM,17 nM,IC50 [4]: 150 nM
CN[C@@H]1CC[C@@H](c2ccc(Cl)c(C(F)(F)F)c2)c2ccccc21 (relative stereo) [Example 10],7300 nM,–,"ED50 [2, 5]: 10 to 32 mg/kg; ED50 (mice; [7]): < 32 mg/kg"
CN(C)[C@@H]1CC[C@@H](c2ccc(Cl)cc2)c2ccccc21 (relative stereo) [Example 20],380 nM,130 nM,–
"CN[C@@H]1CC[C@@H](c2ccc(OC)cc2)c2ccccc21 (relative stereo) [Example 13, Trans-(1S)(1R)-N-methyl-4-(4-methoxyphenyl)-1,2,3,4-tetrahydro-1-naphthalenamine Hydrochloride]",400 nM,150 nM,–
